# Values joined by “and” are separate entries in the source; they are usually repeats but may differ in a detail not shown here. Equal values may be shown once. Read-outs that look alike come from different tables or passages of the source.
# Tests used:
# α-amylase [1] = molecular target: T1, α-amylase (Sus scrofa, UniProt P00690); assay: Mode of α-AMY inhibition (reversibility, Lineweaver–Burk kinetics); type: biochemical; conditions: for type of inhibition of α-amylase: Lineweaver–Burk plots; for reversibility of inhibition of α-amylase: enzyme 100–400 U/L, substrate 5 mmol/L; for Kis: enzyme–substrate complex inhibition constant
# T1 sequence (P00690 16-511): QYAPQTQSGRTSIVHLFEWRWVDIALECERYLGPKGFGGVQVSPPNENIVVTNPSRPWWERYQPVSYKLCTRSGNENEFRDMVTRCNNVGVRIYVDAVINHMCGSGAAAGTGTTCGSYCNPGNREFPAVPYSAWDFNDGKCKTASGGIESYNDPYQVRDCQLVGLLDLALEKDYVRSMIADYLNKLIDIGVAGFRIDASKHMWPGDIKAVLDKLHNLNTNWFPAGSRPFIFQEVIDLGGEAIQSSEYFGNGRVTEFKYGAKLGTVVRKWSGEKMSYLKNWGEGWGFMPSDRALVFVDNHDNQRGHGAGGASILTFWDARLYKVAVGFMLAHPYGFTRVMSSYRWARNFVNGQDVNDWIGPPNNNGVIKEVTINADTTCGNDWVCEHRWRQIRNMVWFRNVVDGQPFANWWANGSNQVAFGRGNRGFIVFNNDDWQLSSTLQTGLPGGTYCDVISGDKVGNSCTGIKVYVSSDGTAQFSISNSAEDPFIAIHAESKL
# α-glucosidase [2] = molecular target: T2, α-glucosidase (Saccharomyces cerevisiae, UniProt P53341); type: biochemical; conditions: for type of inhibition of α-glucosidase: Lineweaver–Burk plots; for reversibility of inhibition of α-glucosidase: enzyme 100–400 U/L, substrate 5 mmol/L
# T2 sequence (P53341 whole entry): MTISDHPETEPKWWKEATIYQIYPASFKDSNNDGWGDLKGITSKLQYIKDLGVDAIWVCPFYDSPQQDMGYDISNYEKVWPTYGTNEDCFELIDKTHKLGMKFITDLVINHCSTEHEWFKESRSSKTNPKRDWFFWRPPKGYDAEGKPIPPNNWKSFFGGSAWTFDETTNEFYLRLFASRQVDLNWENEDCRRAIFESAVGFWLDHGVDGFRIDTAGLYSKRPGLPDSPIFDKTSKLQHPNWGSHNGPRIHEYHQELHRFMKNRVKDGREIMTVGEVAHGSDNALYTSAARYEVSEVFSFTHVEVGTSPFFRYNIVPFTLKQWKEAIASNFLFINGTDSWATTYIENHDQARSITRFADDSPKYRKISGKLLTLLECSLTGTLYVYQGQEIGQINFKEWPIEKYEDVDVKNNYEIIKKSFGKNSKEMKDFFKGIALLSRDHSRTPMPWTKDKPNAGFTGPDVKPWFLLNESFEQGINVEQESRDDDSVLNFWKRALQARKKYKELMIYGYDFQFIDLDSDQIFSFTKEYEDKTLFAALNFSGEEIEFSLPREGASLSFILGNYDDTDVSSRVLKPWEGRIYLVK
# α-glucosidase [3] = molecular target: T2, α-glucosidase; assay: Fluorescence quenching, binding and thermodynamics with α-glucosidase; conditions: for binding constants K: 310 K; for quenching mechanism of α-glucosidase fluorescence: Stern–Volmer plots; for quenching mechanism of α-glucosidase fluorescence / ΔH^0 / ΔS^0: 298–310 K; for ΔH^0 / ΔS^0: Van’t Hoff
# How it was run: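 Enzyme at 400 U/L mixed 1:1 with porphyrins, held 30 min at 298, 304 and 310 K; excitation 280 nm, emission 300–500 nm, inner-filter corrected. Quenching constants from Stern–Volmer fits; ΔH^0, ΔS^0 and ΔG^0 from van't Hoff plot of lnKa versus 1/T.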
# α-amylase [4] = molecular target: T1, α-amylase; assay: Three-dimensional fluorescence spectroscopy of α-amylase complexes; conditions: 298 K; TAPP 2.5, THPP 10, TCPP 10, Fe–TCPP 12.5, Ni–TCPP 17.5, Cu–TCPP 10 μg/mL
# α-amylase [5] = molecular target: T1, α-amylase; assay: FTIR secondary structure analysis of α-AMY complexes; conditions: enzyme–porphyrin molar ratio 1:2, amide I band
# How it was run: (§1)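 Enzyme–porphyrin at 1:2 molar ratio was dried and pressed in KBr, then scanned at 4000–400 cm^−1 with 4 cm^−1 resolution. Secondary-structure content came from curve-fitting the amide I band (1700–1600 cm^−1) into sub-peaks.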
# α-glucosidase [6] = molecular target: T2, α-glucosidase; assay: FTIR secondary structure analysis of α-GLU complexes; conditions: enzyme–porphyrin molar ratio 1:2, amide I band
# How it was run: as §1
# [7] = free enzyme inhibition constant
molecule,measurement,setting,value
Oc1ccc(-c2c3nc(c(-c4ccc(O)cc4)c4ccc([nH]4)c(-c4ccc(O)cc4)c4nc(c(-c5ccc(O)cc5)c5ccc2[nH]5)C=C4)C=C3)cc1 [THPP],Vmax,α-amylase [1]; C 20 μg/mL,0.0740 ± 0.0028 ΔOD/min
same,Vmax,α-amylase [1]; C 30 μg/mL,0.0580 ± 0.0010 ΔOD/min
same,Vmax,α-amylase [1]; C 40 μg/mL,0.0491 ± 0.0012 ΔOD/min
same,Vmax,α-amylase [1]; C 50 μg/mL,0.0426 ± 0.0013 ΔOD/min
same,Vmax,α-amylase [1]; C 60 μg/mL,0.0376 ± 0.0012 ΔOD/min
same,type of inhibition of α-amylase,α-amylase [1],mixed type
same,reversibility of inhibition of α-amylase,α-amylase [1],reversible inhibition
same,Kis,α-amylase [1],23.1012 ± 0.1027 µg/mL
same,Vmax,α-glucosidase [2]; C 1 μg/mL,0.1528 ± 0.0020 ΔOD/min
same,Vmax,α-glucosidase [2]; C 2.5 μg/mL,0.1013 ± 0.0035 ΔOD/min
same,Vmax,α-glucosidase [2]; C 5 μg/mL,0.0649 ± 0.0019 ΔOD/min
same,Vmax,α-glucosidase [2]; C 7.5 μg/mL,0.0489 ± 0.0009 ΔOD/min
same,Vmax,α-glucosidase [2]; C 10 μg/mL,0.0377 ± 0.0009 ΔOD/min
same,type of inhibition of α-glucosidase,α-glucosidase [2],non-competitive inhibition
same,reversibility of inhibition of α-glucosidase,α-glucosidase [2],reversible inhibition
same,binding constants K,α-glucosidase [3],(3.39 ± 0.03) × 10^5 L·mol^−1
same,quenching mechanism of α-glucosidase fluorescence,α-glucosidase [3],static quenching
same,Kq,α-glucosidase [3]; T 298 K,7.40 ± 0.06 ×10^12 L/mol/s
same,Ksv,α-glucosidase [3]; T 298 K,7.40 ± 0.06 ×10^4 L/mol
same,n (number of binding sites),α-glucosidase [3]; T 298 K,1.29
same,ΔG^0,α-glucosidase [3]; T 298 K,-8.439 ± 0.0239 kcal/mol
same,Kq,α-glucosidase [3]; T 304 K,6.97 ± 0.06 ×10^12 L/mol/s
same,Ksv,α-glucosidase [3]; T 304 K,6.97 ± 0.06 ×10^4 L/mol
same,n (number of binding sites),α-glucosidase [3]; T 304 K,1.23
same,ΔG^0,α-glucosidase [3]; T 304 K,-8.212 ± 0.022 kcal/mol
same,Kq,α-glucosidase [3]; T 310 K,6.69 ± 0.04 ×10^12 L/mol/s
same,Ksv,α-glucosidase [3]; T 310 K,6.69 ± 0.04 ×10^4 L/mol
same,n (number of binding sites),α-glucosidase [3]; T 310 K,1.16
same,ΔG^0,α-glucosidase [3]; T 310 K,-7.844 ± 0.014 kcal/mol
same,ΔH^0,α-glucosidase [3],-23.22 ± 0.022 kcal/mol
same,ΔS^0,α-glucosidase [3],−207.25 ± 0.13 J/mol/k
same,Peak 1 Fluorescence Intensity,α-amylase [4],297.5
same,Peak 2 Fluorescence Intensity,α-amylase [4],32.69
same,Random Coil,α-amylase [5],17.71 ± 0.07%
same,α-Helix,α-amylase [5],22.24 ± 0.06%
same,β-Antiparallel,α-amylase [5],13.37 ± 0.03%
same,β-Sheet,α-amylase [5],12.92 ± 0.05%
same,β-Turn,α-amylase [5],33.76 ± 0.08%
same,Random Coil,α-glucosidase [6],23.74 ± 0.06%
same,α-Helix,α-glucosidase [6],21.19 ± 0.05%
same,β-Antiparallel,α-glucosidase [6],7.07 ± 0.01%
same,β-Sheet,α-glucosidase [6],12.79 ± 0.03%
same,β-Turn,α-glucosidase [6],35.20 ± 0.11%
iron (III) meso-tetra (4-carboxyphenyl) porphyrin chloride [Fe–TCPP],Km,α-amylase [1]; C 25 μg/mL,2.7329 ± 0.0882 µg/mL
same,Vmax,α-amylase [1]; C 25 μg/mL,0.1143 ± 0.0037 ΔOD/min
same,Km,α-amylase [1]; C 50 μg/mL,2.9384 ± 0.0447 µg/mL
same,Vmax,α-amylase [1]; C 50 μg/mL,0.0972 ± 0.0015 ΔOD/min
same,Km,α-amylase [1]; C 100 μg/mL,3.2079 ± 0.1016 µg/mL
same,Vmax,α-amylase [1]; C 100 μg/mL,0.0748 ± 0.0024 ΔOD/min
same,Km,α-amylase [1]; C 150 μg/mL,3.3360 ± 0.0508 µg/mL
same,Vmax,α-amylase [1]; C 150 μg/mL,0.0601 ± 0.0009 ΔOD/min
same,Km,α-amylase [1]; C 200 μg/mL,3.4920 ± 0.0491 µg/mL
same,Vmax,α-amylase [1]; C 200 μg/mL,0.0512 ± 0.0007 ΔOD/min
same,type of inhibition of α-amylase,α-amylase [1],mixed type
same,reversibility of inhibition of α-amylase,α-amylase [1],reversible inhibition
same,Kis,α-amylase [1],117.2152 ± 0.1432 µg/mL
same,Ki,α-amylase [1]; [7],69.5865 ± 0.1284 µg/mL
same,Km,α-glucosidase [2],2.6958 ± 0.0821 µg/mL and 3.3979 ± 0.1076 µg/mL and 3.9231 ± 0.1098 µg/mL and 4.1566 ± 0.0981 µg/mL and 4.3847 ± 0.0694 µg/mL
same,Vmax,α-glucosidase [2]; C 16 μg/mL,0.0771 ± 0.0023 ΔOD/min
same,Vmax,α-glucosidase [2]; C 32 μg/mL,0.0601 ± 0.0019 ΔOD/min
same,Vmax,α-glucosidase [2]; C 48 μg/mL,0.0502 ± 0.0014 ΔOD/min
same,Vmax,α-glucosidase [2]; C 64 μg/mL,0.0416 ± 0.0010 ΔOD/min
same,Vmax,α-glucosidase [2]; C 80 μg/mL,0.0361 ± 0.0006 ΔOD/min
same,type of inhibition of α-glucosidase,α-glucosidase [2],mixed type
same,reversibility of inhibition of α-glucosidase,α-glucosidase [2],reversible inhibition
same,Kis,α-glucosidase [2]; enzyme–substrate complex inhibition constant,40.4085 ± 0.1084 µg/mL
same,Ki,α-glucosidase [2]; [7],9.8917 ± 0.0514 µg/mL
same,binding constants K,α-glucosidase [3],(1.02 ± 0.02) × 10^5 L·mol^−1
same,quenching mechanism of α-glucosidase fluorescence,α-glucosidase [3],static quenching
same,Ka (binding constant),α-glucosidase [3]; T 298 K,1.65 ± 0.03 ×10^5 L/mol
same,Kq,α-glucosidase [3]; T 298 K,14.52 ± 0.07 ×10^12 L/mol/s
same,Ksv,α-glucosidase [3]; T 298 K,14.52 ± 0.07 ×10^4 L/mol
same,n (number of binding sites),α-glucosidase [3]; T 298 K,1.01
same,ΔG^0,α-glucosidase [3]; T 298 K,-7.113 ± 0.012 kcal/mol
same,Ka (binding constant),α-glucosidase [3]; T 304 K,1.26 ± 0.03 ×10^5 L/mol
same,Kq,α-glucosidase [3]; T 304 K,13.18 ± 0.05 ×10^12 L/mol/s
same,Ksv,α-glucosidase [3]; T 304 K,13.18 ± 0.05 ×10^4 L/mol
same,n (number of binding sites),α-glucosidase [3]; T 304 K,1.00
same,ΔG^0,α-glucosidase [3]; T 304 K,-7.094 ± 0.017 kcal/mol
same,Ka (binding constant),α-glucosidase [3]; T 310 K,1.02 ± 0.02 ×10^5 L/mol
same,Kq,α-glucosidase [3]; T 310 K,12.20 ± 0.07 ×10^12 L/mol/s
same,Ksv,α-glucosidase [3]; T 310 K,12.20 ± 0.07 ×10^4 L/mol
same,n (number of binding sites),α-glucosidase [3]; T 310 K,0.98
same,ΔG^0,α-glucosidase [3]; T 310 K,-7.103 ± 0.014 kcal/mol
same,ΔH^0,α-glucosidase [3],-7.385 ± 0.014 kcal/mol
same,ΔS^0,α-glucosidase [3],−3.88 ± 0.01 J/mol/k
same,Peak 1 Fluorescence Intensity,α-amylase [4],270.8
same,Peak 2 Fluorescence Intensity,α-amylase [4],28.26
same,Random Coil,α-amylase [5],22.59 ± 0.03%
same,α-Helix,α-amylase [5],21.77 ± 0.07%
same,β-Antiparallel,α-amylase [5],8.76 ± 0.02%
same,β-Sheet,α-amylase [5],12.86 ± 0.04%
same,β-Turn,α-amylase [5],34.02 ± 0.08%
same,Random Coil,α-glucosidase [6],16.75% and 16.75 ± 0.03%
same,α-Helix,α-glucosidase [6],22.48 ± 0.05%
same,β-Antiparallel,α-glucosidase [6],8.02% and 8.02 ± 0.02%

# Source: paper PMC12467033, “Exploring the Inhibitory Potential of Six Porphyrin Compounds Against α-Amylase and α-Glucosidase Linked to Diabetes” (Biomolecules, 2025)
